Three molecules from patent publication US20090106856A1, “Selection System for Wheat” (BASF PLANT SCIENCE GMBH, priority 2005, published 2009) can be followed below.

One assay relates to wheat callus. Kind of assay: Killing curve: callus growth and regeneration under constant selection pressure. In kind it is cell-based, Triticum aestivum. Here is the method:
To define the sensitivity of wheat tissues during transformation when D-Serine and D-Alanine are present as selection agents regeneration experiments with immature embryos were designed. Immature embryos were immersed in PAWinf medium and subjected to all steps of callus induction, callus maintaining and regeneration in transformation protocol above.
Sensitivity of callus tissue under constant selection pressure were evaluated using range of concentrations: 0.5 mM, 1 mM, 3 mM, 5 mM, 10 mM, 25 mM, 50 mM. Experiments were performed in triplicates. Percentage of embryos forming embryos-genic callus was scored on PAW-4 regeneration medium. At the end of shoots elongation regeneration capacity of the calluses was scored as calluses regenerating shoots and number of shoots per callus.
Range of the tested concentrations 0.5-50 mM D-ser and D-ala are evaluated in replicating regeneration experiments. The effect of selective compounds is estimated during callus growth and shoots formation following transformation procedure on medium with D-serine and D-alanine (Table 4).

For the next assay, the system named is wheat in vitro shoots. Kind of assay: Killing curve: rooting of in vitro shoots. The assay is classed as in vivo, Triticum aestivum. The source says: […] The effect of selection agents was observed two and tree weeks later. Number of plantlets with growing roots and green leaves were scored.
In vitro regenerated shoots from media lacking the selection compounds were collected and transferred on medium for rooting (½ MS salts hormone free). Roots formation, growth of the shoots and leaves elongation was scored two and four weeks later after sub culturing of these shoots to the medium supplemented with D-amino acids (Table 5).

The next assay relates to wheat immature embryos. Kind of assay: Killing curve: in vitro germination of immature embryos and seedling growth. The assay is classed as in vivo, Triticum aestivum. How it is done: In order to establish effective concentrations of D-serine and D-alanine on inhibiting growth of tissue cultured wheat cells, a bioassay system using immature embryos was applied. Immature embryos 2 mm in length were dissected onto germination medium with the selection agents, and incubated at 27° C. in light. The number of germinated embryos with well-developed shoots and brunched shoots were scored after 14 days.
Immature embryos 2 mm in size were isolated from the sterilized caryopses. The embryos were cultured on PAW-5 hormone free medium for germination in dark. Seedlings growth on D-amino acid selection was observed after 2 weeks. Most of the embryos germinated but the seedlings growth was inhibited when roots emerge and the uptake of the selection compound was direct from the medium. The Lethal Dose (LD 100) for seedlings germination and growth was 1 mM concentration of both D-amino acids tested (Table 6). Seedlings derived from embryos isolated from the immature caryopsis without endosperms were susceptible to the selection in concentration higher than 1 mM (FIG. 8).

The test system of assay [1] is wheat variety Canon immature embryos / embryogenic callus. Kind of assay: Agrobacterium-mediated transformation with dao1 constructs and selection of transgenic plants. In kind it is cell-based, Triticum aestivum. As to conditions: pRLM205 (dao1 original), 5 mM selection. Here is the method:
(§1) Explants were washed with PAW-Inf. medium and immersed in the above-described bacterial suspension for 2 h at 26° C. At the end of infection the explants were placed with scutellum side up on PAW-1 medium. The residual bacterial suspension is removed by pipeting out and air-drying of the infected embryos by opening plates for 15 min on the sterile banch. Plates were sealed with Parafilm and placed in thermostat at 26° C. in the dark for 5-6 days co-cultivation.
(§2) After co-cultivation period the explants were washed with sterile water and 500 mg/L Cefotaxime and filter paper dried before being transferred to PAW-2 callus induction-recovery medium containing 160 mg/l Timentin for 14 days (7 days dark/7 days semi light; 13.2 μmol m^−2s^−1). Explants with embryogenic callus were subculture to PAW-2 callus-proliferation medium containing 160 mg/l Timentin and corresponding selection 5 mM D-serine or 5 mM D-alanine or 3 mg/l bialaphos. In some experiments the selection on D-amino acids was starting on PAW-2 callus induction medium 0, 7, 14 and 21 days after co cultivation. Embryogenic callus was subculture twice on fresh selective medium for callus maintaining and regeneration on PAW-4 medium with corresponding selection. Cultures were maintained at 23° C. on light 60.2 μmol m^−2s^−1. Regenerated shoots were subculture to PAW-5 hormone free medium with corresponding selection (5 mM D-serine or 5 mM D-alanine or 3 mg/l bialaphos) for further growth and rooting. All media used in the transformation experiments were filter sterilized and are listed in above. After analyses transgenic plants were transferred to soil and placed for further growth in greenhouse. 1.4 Molecular and expression studies of the transgenic plants
Freshly isolated immature embryos from Canon were inoculated with Agrobacterium. In all experiments Agrobacterium tumefactions super binary vector system based on LBA4404 (pSB1) was used. The constructs pRLM205 containing the original dao1 gene and pRLM226 carrying modified Daol. Both constructs contain gusINT reporter marker gene (FIGS. 3, I and II). Following co cultivation the explants were transferred on callus induction PAW-2 selection free medium containing 160 mg/l Timentin to inhibit bacterial growth for 14 days. For selection embryogenic callus was transferred to PAW-2 selection medium containing 5 mM D-serine or 5 mM D-alanine respectively. Furthermore calli were sub cultured to fresh corresponding selection PAW-2 medium for maintaining. Embryogenic calli were trans-ferred on PAW-4 selection medium for regeneration 5-6 weeks after transformation. The emerging plantlets were further grown and rooted on PAW-5 hormone free selection medium. Well-developed and rooted on selection putative transgenic regenerants were selected in vitro within. When D-alanine was used as selection compound similar effects in callus growth, shoots regeneration and rooting of transgenic plants or non transgenic escapes selected on D-serine was observed. Both selection agents resulted with 1.1% to 1.2% transformation efficiency and no escape rate (Table 9).

Assay [2] relates to Transgenic T1 dao1 seedlings. Kind of assay: Negative selection of transgenic T1 dao1 seedlings. In kind it is in vivo, Triticum aestivum. Here is the method: T1 immature embryos were assayed with bioassay for germination of immature embryos on selection. […] Furthermore transgenic T1 seedlings were tested for negative selection using D-isoleucine and D-valine containing medium. Transgenic T1 dao1 seedlings were sensitive to the concentrations range from 10 to 30 mM D-isoleucine and 15-20 mM D-valine (FIG. 11).

The test system of assay [3] is wheat variety Canon immature embryos / embryogenic callus. Kind of assay: Agrobacterium-mediated transformation with dsdA constructs and selection of transgenic plants. In kind it is cell-based, Triticum aestivum. How it is done: as §1, §2
Freshly isolated immature embryos from Canon were inoculated with Agrobacterium. In all experiments Agrobacterium tumefacience LBA4404 (pSB1/pRLM167) (SEQ ID NO: 11) was used. The pRLM167 is a super binary vector containing p-ZmUBI+I::c-dsdA::t-OCS and p-ZmUBI+I::c-PAT::t-OCS selectable marker genes in expression cassettes (FIG. 1). Following co cultivation the explants were given a chance to recover for 14 days on callus induction selection free medium containing 160 mg/l Timentin to inhibit bacterial growth. Under these conditions 59% to 76% of the embryogenic callus developed over the all surface of immature embryos. Embryogenic callus was split in two and transferred to two the corresponding selection medium containing 5-mM D-serine or 3 mg/l bialaphos. During subsequent growth of callus, regeneration of plantlets, shoots elongation and roots formation the respective selection pressure was maintained in each of the corresponding medium. After 7 weeks of selection 38%-47% of the embryogenic calli regenerated with plants when selected on bialaphos or on D-serine respectively. Further selection of the regenerants was performed during the elongation and rooting of the regenerants for an additional 3 weeks. Intact in vitro transgenic shoots were selected within 10-12 weeks after co cultivation.
Freshly isolated immature embryos from Canon were inoculated with Agrobacterium. In all experiments Agrobacterium tumefacience super binary vector system based on LBA4404 (pSB1) was used. The constructs pRLM179, pRLM166, pRLM151 (FIG. 2. I, II and III) containing dsdA selectable marker gene alone or with a second gene (ahas or gusINT) were used for transformation. The explants were cultured on selection medium right away after co-cultivation with Agrobacterium or were cultivated on callus induction—recovery medium for 7, 14 and 21 days containing only 160 mg/l Timentin for inhibiting bacterial growth. Furthermore calli were sub cultured to fresh selection PAW-2 medium for proliferation. Embryogenic calli were transferred on PAW-4 selection medium for regeneration 5-6 weeks after transformation. The emerging plantlets were further grown and rooted on PAW-5 hormone free selection medium. […]

[4] abbreviates: construct pRLM167 (dsdA/pat), selection on 5 mM D-serine or 3 mg/l bialaphos.

With `C[C@@H](N)C(=O)O` [D-alanine], the “Regeneration capacity of the calli reduced” value in the assay on wheat callus (5 mM) was found to be 70%. Further, the “Regenerated Embryogenic Lines (%)” value in the assay on wheat callus (Bobwhite, 0.5 mM) was 85%; in the assay on wheat callus (Bobwhite, 3 mM) it was 52%; in the assay on wheat callus (Bobwhite, 5 mM) it was 14%; in the assay with wheat callus (Bobwhite, 10 mM), 4%; in the assay with wheat callus (Bobwhite, 15 mM), 0%; in the assay with wheat callus (Bobwhite, 25 mM), 0%. The “Regenerated Embryogenic Lines (%)” value in the assay on wheat callus (Bobwhite, 50 mM) came to 0%; in the assay on wheat callus (Canon, 0.5 mM) it was 63%; in the assay with wheat callus (Canon, 3 mM) it was 44%; with wheat callus (Canon, 5 mM), 19%; in the assay with wheat callus (Canon, 10 mM), 3%; with wheat callus (Canon, 15 mM) it was 0%. Also, the “Regenerated Embryogenic Lines (%)” value in the assay on wheat callus (Canon, 25 mM) is on record as 0%; in the assay with wheat callus (Canon, 50 mM) it was 0%. Also, the “lethal dose (LD 100) for regeneration response of callus” value in the assay with wheat callus (tested in both varieties) is reported as 15 mM. The “root formation of non-transgenic shoots” value in the assay with wheat in vitro shoots (5 mM) was “not able to form roots”. Further, the “Rooted Shoots (%)” value in the assay with wheat in vitro shoots (Bobwhite, 1 mM) stood at 34%; in the assay on wheat in vitro shoots (Bobwhite, 3 mM) it was 13%; in the assay with wheat in vitro shoots (Bobwhite, 5 mM) it was 1%; in the assay with wheat in vitro shoots (Bobwhite, 10 mM) it was 0%; with wheat in vitro shoots (Bobwhite, 15 mM), 0%; in the assay with wheat in vitro shoots (Bobwhite, 25 mM) it was 0%. The “Rooted Shoots (%)” value is 36% in the assay on wheat in vitro shoots (Canon, 1 mM); 11% in the assay on wheat in vitro shoots (Canon, 3 mM); 1% in the assay with wheat in vitro shoots (Canon, 5 mM); 0% in the assay on wheat in vitro shoots (Canon, 10 mM); 0% in the assay on wheat in vitro shoots (Canon, 15 mM); 0% in the assay with wheat in vitro shoots (Canon, 25 mM). Also, the “In vitro germination, Immature Embryos (%)” value is reported as 56% with wheat immature embryos (Bobwhite, 0.5 mM); 0% in the assay on wheat immature embryos (Bobwhite, 1 mM); 0% in the assay with wheat immature embryos (Bobwhite, 5 mM); 0% with wheat immature embryos (Bobwhite, 10 mM); 40% with wheat immature embryos (Canon, 0.5 mM); 0% in the assay with wheat immature embryos (Canon, 1 mM). For the same molecule, the “In vitro germination, Immature Embryos (%)” value in the assay on wheat immature embryos (Canon, 5 mM) turned out to be 0%; in the assay with wheat immature embryos (Canon, 10 mM), 0%. For the same molecule, the “ER (%) Escape Rate” value in assay [1] is reported as 0%. Besides, the “TE (%) Transformation Efficiency” value in assay [1] turned out to be 1.27%.

On to `CC(C)[C@@H](N)C(=O)O` [D-valine], for which the “concentration range to which seedlings were sensitive (negative selection)” value in assay [2] lay in the range of 15 to 20 mM.

Regarding `C[C@H](NC(=O)[C@H](C)NC(=O)[C@@H](N)CCP(C)(=O)O)C(=O)O` [bialaphos], in assay [3] (setting [4]), the “ER Escape Rate (% of non-transgenic regenerants out of all selected plants)” value turned out to be 59% and the “TE Transformation Efficiency (% of transgenic plants out of the explants)” value was 2.1%. For the same molecule, the “embryogenic calli regenerated with plants” value in assay [3] (pRLM167, after 7 weeks of selection, 5 mM D-serine or 3 mg/l bialaphos) is listed as 38%.
